Data published in publication PMC10434032 (Microbiology Spectrum, 2023).
Read-outs that look alike come from different tables or passages of the source.

Assays:
[1] = tested on: MPXV Zr-599 (Congo Basin strain, clade I); type: cell-based, Mpox virus
MPXV [2] = type: cell-based, Mpox virus
MPXV [3] = assay: microbe, parasite or virus in culture; type: cell-based, Mpox virus; conditions: Monkeypox virus; for IC50: Vero C1008, read-out: Anti-MPXV activity: IC50; for IC90: Vero C1008, read-out: Anti-MPXV activity: IC90
MPXV [4] = type: cell-based, Mpox virus; remark: listed apart in the source
in vitro [5] = conditions: African green monkey
in vitro [6] = conditions: human
MPXV [7] = assay: microbe, parasite or virus in culture; type: cell-based, Mpox virus; conditions: for IC50 / IC90: Monkeypox virus, Huh-7, 24 h; for IC50: read-out: Anti-MPXV activity: IC50; for IC90: read-out: Anti-MPXV activity: IC90
[8] = tested on: cowpox virus (Brighton Red); type: cell-based
[9] = tested on: MPXV SPL-mpx2A7 strain (clade IIb); type: cell-based, Mpox virus
[10] = tested on: MPXV Liberia strain (West African strain, clade IIa); type: cell-based, Mpox virus
MPXV [11] = type: cell-based, Mpox virus; remark: listed apart in the source
vaccinia virus (LC16m8) = type: cell-based
ISG15 and ISG56 = type: cell-based, human
MPXV [12] = type: cell-based, Mpox virus; remark: listed apart in the source

Compound: O=C(NN1C(=O)[C@@H]2[C@@H]3C=C[C@@H]([C@H]4C[C@@H]34)[C@@H]2C1=O)c1ccc(C(F)(F)F)cc1 [tecovirimat]
- number of surviving cells (fold relative to DMSO-treated control cells) [1]: 223 fold
- virions observed in cells by electron microscopy (MPXV [2]): crescents, immature, and mature virions but not wrapped virions were observed

Compound: CCCCCCCCCCCCCCCCOCCCOP(=O)(O)CO[C@H](CO)Cn1ccc(N)nc1=O [brincidofovir]
- number of surviving cells (fold relative to DMSO-treated control cells) [1]: 103 fold
- IC50 (MPXV [3]): 2100 nM
- IC90 (MPXV [3]): 4290 nM
- antiviral activity by treatment period (a whole life cycle 0-24 h, b entry phase 0-2 h, c postentry 2-24 h) (MPXV [4]): significant antiviral activity in conditions a and c but not in condition b
- CC50 (in vitro [5]): > 10000 nM

Compound: COc1c(C)c2c(c(O)c1C/C=C(\C)CCC(=O)OCCN1CCOCC1)C(=O)OC2 [Mycophenolate mofetil, mycophenolate mofetil]
- CC50 (in vitro [6]): > 10000 nM
- IC50 (MPXV [7]): 340 nM
- IC90 (MPXV [7]): 1080 nM

Compound: O=c1[nH]c(=O)n([C@H]2C[C@H](O)[C@@H](CO)O2)cc1C(F)(F)F [trifluridine]
- expression of viral proteins (immunofluorescence) [8]: clearly reduced
- expression of viral proteins (immunofluorescence) [9]: clearly reduced
- expression of viral proteins (immunofluorescence) [10]: clearly reduced
- MPXV protein expression (immunofluorescence) (MPXV [11]): drastically reduced
- IC50 (MPXV [3]): 490 nM
- IC90 (MPXV [3]): 890 nM
- virions observed in cells by electron microscopy (MPXV [2]): few virions were observed
- antiviral activity by treatment period (a whole life cycle 0-24 h, b entry phase 0-2 h, c postentry 2-24 h) (MPXV [4]): significantly reduced under conditions a and c but not under condition b
- expression of viral proteins (immunofluorescence) (vaccinia virus (LC16m8)): clearly reduced
- CC50 (in vitro [5]): > 100000 nM

Compound: COc1cc(NC(=O)Nc2cccc(CNC(=O)O[C@H]3CCOC3)c2)ccc1-c1cnco1 [Merimepodib, merimepodib]
- CC50 (in vitro [6]): > 10000 nM
- IC50 (MPXV [7]): 290 nM
- IC90 (MPXV [7]): 610 nM

Compound: CC[C@H](CC#N)OC(=O)N[C@@H](C)c1cccc(NC(=O)Nc2ccc(-c3cnco3)c(OC)c2)c1 [AVN-944]
- CC50 (in vitro [6]): > 10000 nM
- IC50 (MPXV [7]): 15 nM
- IC90 (MPXV [7]): 42 nM

Compound: Nc1ccn([C@@H]2O[C@H](CO)[C@@H](O)C2(F)F)c(=O)n1 [gemcitabine]
- expression of viral proteins (immunofluorescence) [8]: clearly reduced
- expression of viral proteins (immunofluorescence) [9]: clearly reduced
- expression of viral proteins (immunofluorescence) [10]: clearly reduced
- MPXV protein expression (immunofluorescence) (MPXV [11]): drastically reduced
- IC50 (MPXV [3]): 24 nM
- IC90 (MPXV [3]): 26 nM
- virions observed in cells by electron microscopy (MPXV [2]): few virions were observed
- antiviral activity by treatment period (a whole life cycle 0-24 h, b entry phase 0-2 h, c postentry 2-24 h) (MPXV [4]): significantly reduced under conditions a and c but not under condition b
- expression of viral proteins (immunofluorescence) (vaccinia virus (LC16m8)): clearly reduced
- CC50 (in vitro [5]): > 100000 nM

Compound: NC(=O)c1ncn([C@@H]2O[C@H](CO)[C@@H](O)[C@H]2O)n1 [Ribavirin, ribavirin]
- CC50 (in vitro [6]): > 100000 nM
- IC50 (MPXV [7]): 13000 nM
- IC90 (MPXV [7]): 44000 nM

Compound: heparin
- antiviral activity by treatment period (a whole life cycle 0-24 h, b entry phase 0-2 h, c postentry 2-24 h) (MPXV [4]): significant antiviral activity under condition b

Compound: COc1c(C)c2c(c(O)c1C/C=C(\C)CCC(=O)O)C(=O)OC2 [MPA, mycophenolic acid]
- expression of viral proteins (immunofluorescence) [8]: clearly reduced
- expression of viral proteins (immunofluorescence) [9]: clearly reduced
- expression of viral proteins (immunofluorescence) [10]: clearly reduced
- induction of interferon-stimulated genes ISG15 and ISG56 (ISG15 and ISG56): did not observe significant induction
- MPXV protein expression (immunofluorescence) (MPXV [11]): drastically reduced
- CC50 (in vitro [6]): > 10000 nM
- IC50 (MPXV [3]): 260 nM
- IC90 (MPXV [3]): 370 nM
- virions observed in cells by electron microscopy (MPXV [2]): few virions were observed
- antiviral activity by treatment period (a whole life cycle 0-24 h, b entry phase 0-2 h, c postentry 2-24 h) (MPXV [4]): significantly reduced under conditions a and c but not under condition b
- selectivity index (SI = CC50/IC50) (MPXV [7]): > 10.6
- IC50 (MPXV [7]): 940 nM
- IC90 (MPXV [7]): 3350 nM
- expression of viral proteins (immunofluorescence) (vaccinia virus (LC16m8)): clearly reduced
- CC50 (in vitro [5]): > 100000 nM
- effect of guanosine supplementation on MPA-mediated reduction of viral DNA levels (MPXV [12]): clearly recovered the MPA-mediated reduction of viral DNA levels in a dose-dependent manner
